Reference: patent US20080193398A1, “Derivatives of Heptaazaphenalene, Methods for Obtaining Them, and Their Use as Protecting Agents Against Uv Radiation” (ISDIN, S.A., priority 2005, published 2008)

What was measured:
[1] = UV absorption (UV λmax and εmax) in solution; format: physicochemical
Excerpt: There follow some examples where the UV λmax and εmax have been measured according to general methods known for the person skilled in the art by way of non-restrictive illustration of the present invention.

UV λmax ([1]; DMSO) [nm]	εmax ([1]; DMSO) [M⁻¹ cm⁻¹]	melting point [°C]	UV λmax ([1]; CHCl3) [nm]	εmax ([1]; CHCl3) [M⁻¹ cm⁻¹]	Structure (SMILES)
329	143000	> 275	–	–	CC1CC(OC(=O)c2ccc(NC3=NC4=NC(Nc5ccc(C(=O)OC6CC(C)CC(C)(C)C6)cc5)=NC5=NC(Nc6ccc(C(=O)OC7CC(C)CC(C)(C)C7)cc6)=NC(=N3)N45)cc2)CC(C)(C)C1 (stereo not drawn) [Example 31, 2,5,8-tris-(4-((3,3,5-trimethylcyclohexyloxy)carbonyl)phenylamino)-1,3,4,6,7,9,9b-heptaazaphenalene]
358	154000	213 to 216	–	–	CCCCC(CC)COC(=O)/C=C/c1ccc(NC2=NC3=NC(Nc4ccc(/C=C/C(=O)OCC(CC)CCCC)cc4)=NC4=NC(Nc5ccc(/C=C/C(=O)OCC(CC)CCCC)cc5)=NC(=N2)N34)cc1 (stereo not drawn) [Example 32, 2,5,8-tris-(4-((E)-3-(2-ethylhexyloxy)-3-oxoprop-1-enyl)phenylamino)-1,3,4,6,7,9,9b-heptaazaphenalene]
290	126000	206 to 210	–	–	CCCCC(CC)COC(=O)/C=C/c1cccc(NC2=NC3=NC(Nc4cccc(/C=C/C(=O)OCC(CC)CCCC)c4)=NC4=NC(Nc5cccc(/C=C/C(=O)OCC(CC)CCCC)c5)=NC(=N2)N34)c1 (stereo not drawn) [Example 33, 2,5,8-tris-(3-((E)-3-(2-ethylhexyloxy)-3-oxoprop-1-enyl)phenylamino)-1,3,4,6,7,9,9b-heptaazafenaleno]
–	–	215 to 222	326	119000	CCCCCCC(CCCC)COC(=O)c1ccc(NC2=NC3=NC(Nc4ccc(C(=O)OCC(CCCC)CCCCCC)cc4)=NC4=NC(Nc5ccc(C(=O)OCC(CCCC)CCCCCC)cc5)=NC(=N2)N34)cc1 (stereo not drawn) [Example 36, 2,5,8-tris-(4-(2-butyloctyloxycarbonyl)phenylamino)-1,3,4,6,7,9,9b-heptaazaphenalene]
324	125000	252 to 255	–	–	CCCCCCCCCCCCCCCCOC(=O)c1ccc(NC2=NC3=NC(Nc4ccc(C(=O)OCCCCCCCCCCCCCCCC)cc4)=NC4=NC(Nc5ccc(C(=O)OCCCCCCCCCCCCCCCC)cc5)=NC(=N2)N34)cc1 [Example 42, 2,5,8-tris-(4-(hexadecyloxycarbonyl)phenylamino)-1,3,4,6,7,9,9b-heptaazaphenalene]

Continued, molecule first:

Structure (SMILES)	UV λmax ([1]; DMSO) [nm]	εmax ([1]; DMSO) [M⁻¹ cm⁻¹]	melting point [°C]	UV λmax ([1]; CHCl3) [nm]	εmax ([1]; CHCl3) [M⁻¹ cm⁻¹]
CCOC(=O)/C=C/c1ccc(NC2=NC3=NC(Nc4ccc(/C=C/C(=O)OCC)cc4)=NC4=NC(Nc5ccc(/C=C/C(=O)OCC)cc5)=NC(=N2)N34)cc1 [Example 22, 2,5,8-tris-(4-((E)-3-ethoxy-3-oxoprop-1-enyl)phenylamino)-1,3,4,6,7,9,9b-heptaazaphenalene]	359	135900	> 275	–	–
COC(=O)c1ccc(NC2=NC3=NC(Nc4ccc(C(=O)OC)cc4)=NC4=NC(Nc5ccc(C(=O)OC)cc5)=NC(=N2)N34)cc1 [Example 24, 2,5,8-tris-(4-(methoxycarbonyl)phenylamino)-1,3,4,6,7,9,9b-heptaazaphenalene]	329	116000	288 to 291	–	–
C(=C\c1ccc(NC2=NC3=NC(Nc4ccc(/C=C/c5ccccc5)cc4)=NC4=NC(Nc5ccc(/C=C/c6ccccc6)cc5)=NC(=N2)N34)cc1)/c1ccccc1 [Example 28, 2,5,8-tris-((4-(E)-styrylphenyl)amino)-1,3,4,6,7,9,9b-heptaazaphenalene]	367	163000	> 270	–	–
CC(C)[C@@H]1CC[C@@H](C)C[C@H]1OC(=O)c1ccc(NC2=NC3=NC(Nc4ccc(C(=O)O[C@@H]5C[C@H](C)CC[C@H]5C(C)C)cc4)=NC4=NC(Nc5ccc(C(=O)O[C@@H]6C[C@H](C)CC[C@H]6C(C)C)cc5)=NC(=N2)N34)cc1 [Example 30, 2,5,8-tris-(4-(L-menthylcarbonyl)phenylamino)-1,3,4,6,7,9,9b-heptaazaphenalene]	326	118000	202 to 206	–	–
